Calls of active or inactive are those of the source.
Assays:
[1] = biological target: FAD-linked sulfhydryl oxidase ALR (Homo sapiens, UniProt P55789); assay: inhibitors of human ALR sulfhydryl oxidase, dose response, biochemical, H2O2 detection, luminescence, cherry-pick (AID 493248)
Cytochrome P450 2C19 = Cytochrome P450 2C19 (Homo sapiens, UniProt P33261); assay: Cytochrome panel assay with activity outcomes. Panel member name: p450-cyp2c19 Compounds with AC50 equal or less than 10 uM are considered active; type: functional; conditions: read-out: AC50
H4 = assay: Luminescence Cell-Based Dose Response HTS to Identify Activators of 5'UTR Stem-Loop Driven Prion Protein mRNA Translation in H4 Neuroglioblastoma Cells. [Related pubchem assays: 1829 (Project Summary), 1814 (Primary HTS)]; type: functional; conditions: Homo sapiens
Cytochrome P450 1A2 = biological target: T1, Cytochrome P450 1A2 (Homo sapiens, UniProt P05177);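 further: PubChem cytochrome P450 panel assay, CYP1A2 panel member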
T1 sequence (P05177 whole entry): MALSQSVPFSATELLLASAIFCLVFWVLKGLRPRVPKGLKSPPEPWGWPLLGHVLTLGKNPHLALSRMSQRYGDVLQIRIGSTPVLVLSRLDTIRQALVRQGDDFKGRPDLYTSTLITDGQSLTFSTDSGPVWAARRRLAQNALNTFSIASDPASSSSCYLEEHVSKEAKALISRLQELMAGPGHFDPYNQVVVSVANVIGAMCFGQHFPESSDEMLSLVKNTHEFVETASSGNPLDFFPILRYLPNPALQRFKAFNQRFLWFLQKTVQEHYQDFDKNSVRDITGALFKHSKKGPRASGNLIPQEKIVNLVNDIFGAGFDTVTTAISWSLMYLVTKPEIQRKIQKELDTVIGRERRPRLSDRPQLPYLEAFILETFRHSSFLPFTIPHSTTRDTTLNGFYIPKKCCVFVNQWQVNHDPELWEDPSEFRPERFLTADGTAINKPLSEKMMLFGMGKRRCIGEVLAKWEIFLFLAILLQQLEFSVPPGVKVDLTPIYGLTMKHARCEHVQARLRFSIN

[2] = Luminescence Cell-Based Dose Response HTS to Identify Activators of Luciferase Translation or Activity in H4 […] Cells. [Related pubchem assays: 1829 (Project Summary), 1814 (Primary HTS)]; type: functional
[3] = Luminescence Cell-Based Dose Confirmation HTS to Identify Activators of 5'UTR Stem-Loop Driven Alpha-Synuclein mRNA Translation in H4 Neuroglioblastoma Cells. [Related pubchem assays: 1829 (Project Summary), 1814 (Primary HTS)]; type: functional
[4] = tested on: Streptococcus sp. 'group A'; assay: growth inhibition of control SK(-) GAS strain, dose response, counter-screen for streptokinase expression inhibitor project, luminescence, kanamycin, BacTiterGlo, confirmation (AID 1900); type: functional, organism-based
Streptococcus = assay: Group A Streptococcus viability loss, dose response, counter-screen for streptokinase expression inhibitor project, luminescence, BacTiterGlo (AID 1915); type: functional, organism-based;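 further: potency for reduction of bacterial viability or growth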
Streptokinase A = biological target: T2, Streptokinase A (Streptococcus pyogenes serotype M1, UniProt P10520); assay: S. pyogenes streptokinase expression inhibitors, potency, dose response, plasminogen activation absorbance, OD405 (AID 1914); type: functional, Streptococcus pyogenes M1 GAS;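 further: secreted streptokinase activity via plasminogen activation per viability signal from cell pellet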
T2 sequence (P10520 whole entry): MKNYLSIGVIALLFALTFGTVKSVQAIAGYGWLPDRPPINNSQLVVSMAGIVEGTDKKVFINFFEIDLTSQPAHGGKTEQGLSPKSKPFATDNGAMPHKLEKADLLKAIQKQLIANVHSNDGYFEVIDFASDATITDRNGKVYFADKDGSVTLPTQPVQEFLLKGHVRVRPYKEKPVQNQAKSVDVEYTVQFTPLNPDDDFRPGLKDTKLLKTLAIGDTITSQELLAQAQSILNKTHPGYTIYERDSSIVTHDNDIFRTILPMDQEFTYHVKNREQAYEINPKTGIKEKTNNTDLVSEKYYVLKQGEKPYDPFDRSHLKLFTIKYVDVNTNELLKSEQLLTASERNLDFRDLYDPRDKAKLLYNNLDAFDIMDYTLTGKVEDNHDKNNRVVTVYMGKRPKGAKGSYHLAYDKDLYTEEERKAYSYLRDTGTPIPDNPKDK

[5] = biological target: T3, Replicative DNA helicase DnaB (Mycobacterium tuberculosis, UniProt P9WMR3); assay: DnaB intein splicing inhibitors, dose response, biochemical, cell-free fluorescence (AID 449749); type: functional
T3 sequence (P9WMR3 whole entry): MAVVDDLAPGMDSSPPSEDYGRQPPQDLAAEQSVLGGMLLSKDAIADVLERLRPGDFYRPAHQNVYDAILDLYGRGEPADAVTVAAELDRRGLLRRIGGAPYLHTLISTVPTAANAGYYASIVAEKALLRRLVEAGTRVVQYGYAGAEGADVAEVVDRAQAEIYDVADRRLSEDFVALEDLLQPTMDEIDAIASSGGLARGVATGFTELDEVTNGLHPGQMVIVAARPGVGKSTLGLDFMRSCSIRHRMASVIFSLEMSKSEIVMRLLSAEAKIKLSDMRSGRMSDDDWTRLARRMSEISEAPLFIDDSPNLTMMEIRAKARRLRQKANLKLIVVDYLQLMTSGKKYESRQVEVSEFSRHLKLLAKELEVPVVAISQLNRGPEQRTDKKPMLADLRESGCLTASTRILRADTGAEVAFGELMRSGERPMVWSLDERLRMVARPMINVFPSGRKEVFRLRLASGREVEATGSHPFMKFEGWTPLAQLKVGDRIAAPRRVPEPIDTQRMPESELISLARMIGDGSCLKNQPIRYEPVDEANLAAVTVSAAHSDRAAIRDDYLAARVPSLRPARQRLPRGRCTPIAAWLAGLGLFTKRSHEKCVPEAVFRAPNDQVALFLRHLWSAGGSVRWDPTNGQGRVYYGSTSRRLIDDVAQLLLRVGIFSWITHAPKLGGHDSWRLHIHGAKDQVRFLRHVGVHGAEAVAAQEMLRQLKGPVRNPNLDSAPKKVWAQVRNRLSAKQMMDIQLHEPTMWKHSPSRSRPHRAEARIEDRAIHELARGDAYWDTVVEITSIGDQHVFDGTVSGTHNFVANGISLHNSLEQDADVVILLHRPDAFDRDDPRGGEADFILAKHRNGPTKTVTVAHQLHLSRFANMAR

Protein RecA = biological target: T4, Protein RecA (Mycobacterium tuberculosis, UniProt P9WHJ3); assay: Fluorescence Cell-Free Homogeneous Dose Retest to Identify Inhibitors of RecA-Intein Splicing Activity. [Related pubchem assays (depositor defined):AID2097, AID2223, AID489010, AID492950]; type: functional
T4 sequence (P9WHJ3 whole entry): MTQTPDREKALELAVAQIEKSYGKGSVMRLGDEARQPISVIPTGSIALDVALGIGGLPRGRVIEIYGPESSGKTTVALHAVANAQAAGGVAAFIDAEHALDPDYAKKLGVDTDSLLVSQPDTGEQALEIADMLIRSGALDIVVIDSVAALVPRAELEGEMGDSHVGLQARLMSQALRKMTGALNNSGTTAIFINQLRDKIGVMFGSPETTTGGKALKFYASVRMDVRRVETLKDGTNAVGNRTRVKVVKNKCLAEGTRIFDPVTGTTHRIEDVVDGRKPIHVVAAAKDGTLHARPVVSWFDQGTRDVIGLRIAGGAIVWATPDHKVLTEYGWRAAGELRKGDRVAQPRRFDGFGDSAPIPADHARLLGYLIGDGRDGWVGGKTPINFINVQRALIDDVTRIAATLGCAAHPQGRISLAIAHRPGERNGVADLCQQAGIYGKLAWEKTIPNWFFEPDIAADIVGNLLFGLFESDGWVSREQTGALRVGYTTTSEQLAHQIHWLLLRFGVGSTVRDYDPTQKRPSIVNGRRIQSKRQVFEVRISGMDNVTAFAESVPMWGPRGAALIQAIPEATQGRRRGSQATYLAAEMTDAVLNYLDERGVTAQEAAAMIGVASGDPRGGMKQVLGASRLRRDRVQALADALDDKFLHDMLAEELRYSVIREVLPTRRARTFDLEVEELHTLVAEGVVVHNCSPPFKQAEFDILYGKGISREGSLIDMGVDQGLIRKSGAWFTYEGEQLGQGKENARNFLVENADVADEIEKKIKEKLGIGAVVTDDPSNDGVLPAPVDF

[6] = biological target: T5, Rac GTPase-activating protein 1 (Homo sapiens, UniProt Q9H0H5); assay: MgcRacGAP GTPase-activating activity inhibitors, confirmation, biochemical, ADP Hunter fluorescence, primary and confirmatory (AID 624330); type: functional
T5 sequence (Q9H0H5 whole entry): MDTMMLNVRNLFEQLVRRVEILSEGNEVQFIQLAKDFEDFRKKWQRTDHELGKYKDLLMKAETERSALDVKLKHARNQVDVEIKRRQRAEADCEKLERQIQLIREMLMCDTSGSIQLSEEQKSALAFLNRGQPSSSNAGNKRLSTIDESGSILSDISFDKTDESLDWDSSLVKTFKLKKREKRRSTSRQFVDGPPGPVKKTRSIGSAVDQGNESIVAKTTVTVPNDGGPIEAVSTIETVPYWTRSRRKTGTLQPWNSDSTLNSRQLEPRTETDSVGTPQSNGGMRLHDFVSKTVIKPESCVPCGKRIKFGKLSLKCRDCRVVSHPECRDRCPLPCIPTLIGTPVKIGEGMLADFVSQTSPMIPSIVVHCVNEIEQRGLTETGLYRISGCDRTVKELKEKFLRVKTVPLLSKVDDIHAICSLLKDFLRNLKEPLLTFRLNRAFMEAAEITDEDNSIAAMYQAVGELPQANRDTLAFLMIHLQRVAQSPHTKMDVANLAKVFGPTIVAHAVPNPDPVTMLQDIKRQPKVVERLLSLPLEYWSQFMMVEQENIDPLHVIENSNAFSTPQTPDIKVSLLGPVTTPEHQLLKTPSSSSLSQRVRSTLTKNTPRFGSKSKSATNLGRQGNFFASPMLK

[7] = biological target: T6, Heat shock factor protein 1 (Mus musculus, UniProt P38532); assay: HSF1 potentiators in luciferase reporter cells, confirmation, cell-based, NIH3T3, luminescence, dose retest (AID 435004); type: functional;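 further: stress induced by proteasome inhibitor MG132 added 30 min after compound; luciferase reporter driven by HSF1 response element in NIH3T3 cells; actives raise luminescence as potentiators of the MG132 stress response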
T6 sequence (P38532 whole entry): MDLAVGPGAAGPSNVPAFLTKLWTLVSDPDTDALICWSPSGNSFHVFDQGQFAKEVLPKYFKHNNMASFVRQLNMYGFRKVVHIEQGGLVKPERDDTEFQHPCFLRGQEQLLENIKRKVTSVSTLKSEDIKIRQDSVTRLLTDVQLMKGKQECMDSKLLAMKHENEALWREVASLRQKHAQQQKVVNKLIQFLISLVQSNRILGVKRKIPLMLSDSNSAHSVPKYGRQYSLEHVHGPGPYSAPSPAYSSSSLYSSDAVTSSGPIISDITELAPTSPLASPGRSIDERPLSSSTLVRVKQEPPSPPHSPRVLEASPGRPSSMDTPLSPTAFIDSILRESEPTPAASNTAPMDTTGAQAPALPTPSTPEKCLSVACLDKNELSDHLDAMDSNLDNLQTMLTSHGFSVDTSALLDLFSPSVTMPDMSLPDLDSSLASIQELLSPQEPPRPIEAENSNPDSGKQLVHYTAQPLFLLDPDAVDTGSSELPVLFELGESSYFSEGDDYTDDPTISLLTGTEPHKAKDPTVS

FAD-linked sulfhydryl oxidase ALR, sequence (P55789 whole entry): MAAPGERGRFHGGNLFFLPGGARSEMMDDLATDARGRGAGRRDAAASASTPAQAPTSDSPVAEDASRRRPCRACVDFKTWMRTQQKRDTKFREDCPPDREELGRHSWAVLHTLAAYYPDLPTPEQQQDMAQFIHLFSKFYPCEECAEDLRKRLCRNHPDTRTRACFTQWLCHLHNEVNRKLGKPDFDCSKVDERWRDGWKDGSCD
Cytochrome P450 2C19, sequence (P33261 whole entry): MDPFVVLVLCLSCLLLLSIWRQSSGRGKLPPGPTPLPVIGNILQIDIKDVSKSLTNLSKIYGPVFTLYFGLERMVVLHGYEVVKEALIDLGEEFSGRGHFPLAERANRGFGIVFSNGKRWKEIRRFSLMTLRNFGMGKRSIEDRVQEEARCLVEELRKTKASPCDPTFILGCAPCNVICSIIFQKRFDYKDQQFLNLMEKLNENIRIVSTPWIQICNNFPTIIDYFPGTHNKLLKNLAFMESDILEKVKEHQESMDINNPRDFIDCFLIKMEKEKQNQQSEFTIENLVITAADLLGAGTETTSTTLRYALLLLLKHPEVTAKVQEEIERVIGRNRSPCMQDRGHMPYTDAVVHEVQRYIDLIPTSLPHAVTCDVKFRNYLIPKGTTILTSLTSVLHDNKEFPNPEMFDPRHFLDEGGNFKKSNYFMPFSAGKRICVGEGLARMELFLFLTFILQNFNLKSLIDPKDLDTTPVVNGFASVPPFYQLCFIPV

## Cc1c(C(=O)O)c2cc(O)ccc2n1-c1ccccc1
[1]
  AC50: 5.18 µM (active)

## Oc1ccccc1/C=N/Nc1ccccc1
[1]
  AC50: 7.86 µM (active)

## CCc1ccc(CN(C(=O)c2cc3ccccc3oc2=O)C2CCS(=O)(=O)C2)cc1 (centres undefined)
Cytochrome P450 2C19
  AC50: 20 µM (inconclusive)
H4
  EC50: 0.547 µM (active)
Cytochrome P450 1A2
  AC50: 28.2 µM (inconclusive)
[2]
  EC50: 28.6 µM (active)
[3]
  EC50: 27.7 µM (active)

## Cc1ccc(C)c(NC(=O)NNS(=O)(=O)c2ccc(C)c(C)c2)c1
[1]
  AC50: 3.8 µM (active)

## CCCn1c2ccc(/C(C)=N\O)cc2c2cc(/C(C)=N/O)ccc21
[1]
  AC50: 0.028 µM (active)

## c1ccc(-c2onc(-c3ccco3)c2-c2ccc3[nH]ccc3c2)cc1
[4]
  EC50: 3.19 µM (active)
H4
  EC50: 23.7 µM (active)
[2]
  EC50: 63.1 µM (active)
[3]
  EC50: 14.3 µM (active)
Streptococcus
  EC50: 26.4 µM (active)
Streptokinase A
  EC50: 4.99 µM (active)

## Cn1cnc([N+](=O)[O-])c1Oc1ccc2ccccc2c1
[5]
  AC50: 31.9 µM (active)
Protein RecA
  EC50: 12.7 µM (active)

## CCCc1n[nH]c2c1C(c1ccc(OC(=O)c3ccco3)cc1)C(C#N)=C(N)O2 (centres undefined)
[5]
  AC50: 3.41 µM (active)
Protein RecA
  EC50: 5.22 µM (active)

## Cn1cccc1/C=N/N1CCN(c2ccccc2)CC1
[1]
  AC50: 85.3 µM (active)
[6]
  IC50: 84.2 µM (active)

## CC(C)(C)OC(=O)NCc1nnc(S)n1C1CC1
[1]
  AC50: 5.46 µM (active)

## Cc1ccc(-c2c3c(=O)n(C)c(=O)n(C)c3cn2-n2cnnc2)cc1
[1]
  AC50: 9.89 µM (active)
[7]
  EC50: 13.5 µM (active)

## CN1CCN2c3ccc(N)cc3CC3(C(=O)NC(=O)NC3=O)C2C1 (centres undefined)
[5]
  AC50: 147 µM (active)
Protein RecA
  EC50: 39.5 µM (active)

## [O-]c1c[n+](-c2ccc(-[n+]3cc([O-])on3)cc2)no1
[1]
  AC50: 4.1 µM (active)

## CCN(CC)C(=N)/C(C#N)=N/Nc1ccc(C)cc1
[1]
  AC50: 0.035 µM (active)

## COCC(C)NC(=O)CCS(=O)(=O)c1nc(-c2ccc(OC)cc2)cc(C(F)(F)F)n1 (centres undefined)
[5]
  AC50: 12.5 µM (active)
Protein RecA
  EC50: 6.72 µM (active)

## CCc1ccc(NC(=O)CSc2ccc(-c3sc(C)nc3C)nn2)cc1
[5]
  AC50: 278 µM (active)
Protein RecA
  EC50: > 380 µM (inactive)

## O=C(NC1CCCC1)C(c1ccc(F)cc1)N(Cc1ccc(Cl)cc1)C(=O)CCl (centres undefined)
[5]
  AC50: 9.46 µM (active)
Protein RecA
  EC50: 0.965 µM (active)

## O=C(c1cccc(C(F)(F)F)c1)C1CCCN(C(=O)c2cc(C3CC3)[nH]n2)C1 (centres undefined)
[1]
  AC50: 0.392 µM (active)

## CCN(CC)c1ccc(NS(=O)(=O)c2ccc(-c3ccc(O)nn3)o2)c(C)c1
[1]
  AC50: 0.382 µM (active)

## O=C(NCC(=O)N1CCN(c2ccccc2O)CC1)c1ccco1
[1]
  AC50: 2.22 µM (active)

## CCC1(C(=O)O)NC(c2cc(OC)ccc2O)C2C(=O)N(Cc3ccccc3)C(=O)C21 (centres undefined)
[1]
  AC50: 7.15 µM (active)

## Cc1ccc2occ(C3N[C@H](C(=O)O)CS3)c(=O)c2c1 (some centres undefined)
[1]
  AC50: 0.392 µM (active)

Reference: ChEMBL document CHEMBL1201862, “PubChem BioAssay data set” (2004)
